According to patent US20250002475A1 (EPICS THERAPEUTICS, priority 2023, published 2025):

Key:
[1] = target: T1, recombinant METTL3/METTL14 complex (Homo sapiens, UniProt Q86U44); assay: METTL3/14 Scintillation Proximity Assay (SPA), RNA methyltransferase activity; assay type: biochemical; conditions: 5.31 nM METTL3/14 complex, 250 nM RNA substrate, 1 μM 3H-SAM, 90 min; for compounds marked * best of the two separated forms
T1 construct: purchased Active Motif 311970; host or cells: Sf9 cells

[2] = system: Caov-3 cells; assay: Caov-3 cellular viability assay (ATP-Lite, 72 h); assay type: cell-based; conditions: Homo sapiens, ATP-Lite luminescence, % viability relative to DMSO
Procedure: Caov-3 cell line was purchased from ATCC (ATCC® HTB-75™). Cells were isolated from the ovary of a ovarian cancer patient.
Caov-3 cells are cultured in DMEM (ATCC 30-2002) containing 10% heat-inactivated and 0.22 μm filtered FBS (Gibco 10270-106). The cells are seeded at 2.5E+4cell/cm^2 within the recommended subcultivation ratio of 1:3 to 1:6, as stated on the certificate of analysis issues by the provider of the cells.
(§1) Cellular viability assay: Caov-3 cells were plated (50 μL) in 96-well cell culture microplates (PS, F-Bottom black, Cellstar, Greiner 655086) at final concentration of 10000 cells/well. The compounds of the invention were dissolved in DMSO, and a titration curve was generated at 1000× final concentration. Compounds were then diluted 500× in tissue culture medium (RPMI-1640, 10% FBS). Then 50 μl of test compound were added to Caov-3 cells in a final DMSO concentration of 0.1%, final volume 100 μl. A gas permeable sealing membrane was applied to the plate to prevent evaporation (Breathe-Easy sealing membrane, Sigma Z380059-1PK) and cells were incubated for 72 h at 37° C., 5% CO2, 80% RH. After 72 h of treatment, the plates were taken out of the incubator and left for a few minutes at room temperature. 100 μl of the reconstituted reagent ATP-Lite One Step (Perkin Elmer, 6016739) were added to each well. The plates were shaken for 2 min at 700 rpm and placed in the dark for 10 minutes at room temperature before measurement of luminescence intensity with Envision instrument. The raw data were expressed in RLU. Results were expressed in % of viability relative to DMSO control and an IC50 was calculated based on the concentration-response profile of individual compounds.

[3] = system: Kasumi-1 cells; assay: Kasumi-1 cellular viability assay (ATP-Lite, 72 h); assay type: cell-based; conditions: Homo sapiens, ATP-Lite luminescence, % viability relative to DMSO
Procedure: Kasumi-1 cell line was purchased from ATCC (ATCC® CRL2724™). Cells were isolated from the peripheral blood of a child with acute myeloid leukemia (AML FAB M2) (in 2nd relapse after bone marrow transplantation) in 1989. Most cells are round. Kasumi-1 cells are observed to grow individually or in small clumps in suspension.
Kasumi-1 cells are cultured in RPMI-1640 (Gibco A10491-01) containing 10% heat-inactivated and 0.22 μm filtered FBS (Gibco 10270-106) at a density of 3E+5 and 3E+6 viable cell/mL following the certificate of analysis.
as §1, with “assay: Kasumi-1” for “assay: Caov-3”, “of 15000” for “of 10000”, “to Kasumi-1” for “to Caov-3”, “After 72h” for “After 72 h”, “6016739) was” for “6016739) were”

T1 sequence (Q86U44 whole entry): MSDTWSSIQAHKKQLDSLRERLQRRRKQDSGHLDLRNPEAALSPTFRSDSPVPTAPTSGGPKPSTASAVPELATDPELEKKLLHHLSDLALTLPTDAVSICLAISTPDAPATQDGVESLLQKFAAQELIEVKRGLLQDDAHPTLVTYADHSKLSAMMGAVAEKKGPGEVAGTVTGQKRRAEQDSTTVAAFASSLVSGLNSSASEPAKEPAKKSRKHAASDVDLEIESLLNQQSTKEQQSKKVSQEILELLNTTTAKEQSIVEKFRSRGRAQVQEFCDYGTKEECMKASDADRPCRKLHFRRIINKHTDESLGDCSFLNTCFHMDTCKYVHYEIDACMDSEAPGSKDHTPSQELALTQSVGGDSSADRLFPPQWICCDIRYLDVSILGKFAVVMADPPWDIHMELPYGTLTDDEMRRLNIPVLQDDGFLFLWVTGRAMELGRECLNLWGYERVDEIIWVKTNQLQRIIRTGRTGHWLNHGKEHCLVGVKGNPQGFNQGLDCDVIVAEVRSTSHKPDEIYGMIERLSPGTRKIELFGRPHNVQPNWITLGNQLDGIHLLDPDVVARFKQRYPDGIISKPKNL
T1 sequence (Q9HCE5 whole entry partner): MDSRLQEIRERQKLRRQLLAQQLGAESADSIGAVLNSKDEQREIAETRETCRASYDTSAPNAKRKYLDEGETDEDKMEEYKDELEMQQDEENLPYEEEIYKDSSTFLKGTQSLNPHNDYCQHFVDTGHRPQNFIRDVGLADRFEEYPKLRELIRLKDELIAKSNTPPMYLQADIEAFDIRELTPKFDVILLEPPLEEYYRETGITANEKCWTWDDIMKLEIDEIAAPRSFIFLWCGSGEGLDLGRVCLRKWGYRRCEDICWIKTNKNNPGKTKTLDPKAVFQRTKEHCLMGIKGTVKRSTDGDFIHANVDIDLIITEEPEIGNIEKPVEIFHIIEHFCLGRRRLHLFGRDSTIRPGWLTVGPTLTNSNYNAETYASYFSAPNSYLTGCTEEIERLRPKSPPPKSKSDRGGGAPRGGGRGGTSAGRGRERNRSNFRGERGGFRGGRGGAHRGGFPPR

Structure (SMILES)	IC50 [1] [nM]	IC50 [2] [nM]	IC50 [3] [nM]
CC(n1cc(-c2cncc(N3CCN(C)C3=O)c2)nn1)n1ccc(N2CCC[C@@H](NCC3CCC3)C2)cc1=O (single isomer, unassigned) [Compound 153]	≤ 50	> 5000	> 5000
CC(n1cc(-c2cncc(N(C)CC(F)(F)F)c2)nn1)n1ccc(N2CCC[C@@H](NCC3CCC3)C2)cc1=O (single isomer, unassigned) [Compound 154]	≤ 50	≤ 500	≤ 500
CC(C)Nc1cncc(-c2cn(C(C)n3ccc(N4CCC[C@@H](NCC5CCC5)C4)cc3=O)nn2)c1 (single isomer, unassigned) [Compound 158]	≤ 50	≤ 500	≤ 500
CC(n1cc(-c2cncc(N3CCCC3=O)c2)nn1)n1ccc(N2CCC[C@@H](NCC3CCC3)C2)cc1=O (single isomer, unassigned) [Compound 159]	≤ 50	500 to 5000	500 to 5000
CC(n1cc(-c2cncc(N3CCCC3)c2)nn1)n1ccc(N2CCC[C@@H](NCC3CCC3)C2)cc1=O (single isomer, unassigned) [Compound 160]	≤ 50	≤ 500	≤ 500
CC(n1cc(-c2cncc(N3CCC3)c2)nn1)n1ccc(N2CCC[C@@H](NCC3CCC3)C2)cc1=O (single isomer, unassigned) [Compound 161]	≤ 50	≤ 500	≤ 500
CC(n1cnc(-c2cncc(N(C)C)c2)c1)n1ccc(N2CCC[C@@H](NCC3CCC3)C2)cc1=O (single isomer, unassigned) [Compound 166]	≤ 50	≤ 500	≤ 500
CC(n1cc(-c2cncc(N3CCN(C)CC3)c2)nn1)n1ccc(N2CCC[C@@H](NCC3CCC3)C2)cc1=O (single isomer, unassigned) [Compound 168]	≤ 50	≤ 500	500 to 5000
CC(c1ccc(N2CCC[C@@H](NCC3CCC3)C2)cn1)c1cnc(-c2cncc(N(C)C)c2)s1 (single isomer, unassigned) [Compound 169]	≤ 50	≤ 500	≤ 500
CC(n1cc(-c2cncc(N3CCCC3)c2)nn1)n1ccc(N2CCC[C@@H](NCC3CC3)C2)cc1=O (single isomer, unassigned) [Compound 176]	≤ 50	≤ 500	≤ 500
CC1CN(c2cncc(-c3cn(C(C)n4ccc(N5CCC[C@@H](NCC6CCC6)C5)cc4=O)nn3)c2)C1 (single isomer, unassigned) [Compound 177]	≤ 50	≤ 500	≤ 500
CC(n1cc(-c2cncc(N3CCCCC3)c2)nn1)n1ccc(N2CCC[C@@H](NCC3CCC3)C2)cc1=O (single isomer, unassigned) [Compound 178]	≤ 50	≤ 500	≤ 500
CC(n1nnc(-c2cncc(N(C)C)c2)n1)n1ccc(N2CCC[C@@H](NCC3CCC3)C2)cc1=O (single isomer, unassigned) [Compound 179]	≤ 50	≤ 500	≤ 500

Now from value to compound, other results behind:

IC50 [1] [nM]	Structure (SMILES)	IC50 [2] [nM]	IC50 [3] [nM]
≤ 50	CC(n1cc(-c2cncc(N3CCCC3)n2)nn1)n1ccc(N2CCC[C@@H](NCC3CC3)C2)cc1=O (single isomer, unassigned) [Compound 180]	≤ 500	≤ 500
≤ 50	COc1cncc(-c2ncc(C(C)c3ccc(N4CCC[C@@H](NCC5CCC5)C4)cn3)s2)c1 (single isomer, unassigned) [Compound 181]	500 to 5000	500 to 5000
≤ 50	CC(n1cc(-c2cncc(N(C)C)n2)nn1)n1ccc(N2CCC[C@@H](NCC3CC3)C2)cc1=O (single isomer, unassigned) [Compound 186]	≤ 500	≤ 500
≤ 50	CCOc1cncc(-c2cn(C(C)c3ccc(N4CCC[C@@H](NCC5CCC5)C4)nn3)nn2)c1 (single isomer, unassigned) [Compound 187]	≤ 500	500 to 5000
≤ 50	COc1cc(-c2cn(C(C)n3ccc(N4CCC[C@@H](NCC5CCC5)C4)cc3=O)cn2)c2cn[nH]c2c1 (single isomer, unassigned) [Compound 188]	500 to 5000	500 to 5000
≤ 50	CC(n1cc(-c2cncc(N3CC4(COC4)C3)c2)nn1)n1ccc(N2CCC[C@@H](NCC3CCC3)C2)cc1=O (single isomer, unassigned) [Compound 191]	≤ 500	500 to 5000
≤ 50	CC(n1cc(-c2cncc(N3CC4(CCC4)C3)c2)nn1)n1ccc(N2CCC[C@@H](NCC3CCC3)C2)cc1=O (single isomer, unassigned) [Compound 193]	≤ 500	≤ 500
≤ 50	CC(n1cc(-c2cc(N(C)C)cnn2)nn1)n1ccc(N2CCC[C@@H](NCC3CCC3)C2)cc1=O (single isomer, unassigned) [Compound 198]	500 to 5000	500 to 5000
≤ 50	COC1CN(c2cncc(-c3cn(C(C)n4ccc(N5CCC[C@@H](NCC6CCC6)C5)cc4=O)nn3)c2)C1 (single isomer, unassigned) [Compound 199]	≤ 500	≤ 500
≤ 50	CC(n1cc(-c2cncc(OCC(F)(F)F)c2)nn1)n1ccc(N2CCC[C@@H](NCC3CCC3)C2)cc1=O (single isomer, unassigned) [Compound 200]	500 to 5000	500 to 5000
≤ 50	CC(n1cc(-c2cc(N3CCCC3)cnn2)nn1)n1ccc(N2CCC[C@@H](NCC3CC3)C2)cc1=O (single isomer, unassigned) [Compound 206]	≤ 500	500 to 5000
≤ 50	CC(n1cc(-c2cncc(N3CC(C(F)F)C3)c2)nn1)n1ccc(N2CCC[C@@H](NCC3CC3)C2)cc1=O (single isomer, unassigned) [Compound 209]	500 to 5000	500 to 5000
≤ 50	COc1cc(-c2nnn(C(C)n3ccc(N4CCC[C@@H](NCC5CCC5)C4)cc3=O)n2)c2cn[nH]c2c1 (single isomer, unassigned) [Compound 210]	≤ 500	500 to 5000
≤ 50	CC(n1cc(-c2cncc(N3CC4(C3)CC4(F)F)c2)nn1)n1ccc(N2CCC[C@@H](NCC3CC3)C2)cc1=O (single isomer, unassigned) [Compound 211]	≤ 500	≤ 500
≤ 50	CC(n1cc(-c2cncc(-n3ccnc3)c2)nn1)n1ccc(N2CCC[C@@H](NCC3CC3)C2)cc1=O (single isomer, unassigned) [Compound 218]	500 to 5000	> 5000
≤ 50	CC(c1cnn(-c2cc(N3CCCC3)cnn2)c1)n1ccc(N2CCC[C@@H](NCC3CC3)C2)cc1=O (single isomer, unassigned) [Compound 219]	≤ 500	500 to 5000
≤ 50	CC(c1cnn(-c2cncc(N3CCCC3)n2)c1)n1ccc(N2CCC[C@@H](NCC3CC3)C2)cc1=O (single isomer, unassigned) [Compound 220]	≤ 500	≤ 500
≤ 50	CC(c1cnn(-c2cncc(N(C)C)n2)c1)n1ccc(N2CCC[C@@H](NCC3CC3)C2)cc1=O (single isomer, unassigned) [Compound 225]	≤ 500	≤ 500
